Read-outs that look alike come from different tables or passages of the source.
How the values were obtained:
Format in all cases: in vivo, human
[1] = system: Subjects Having Insomnia Disorder; assay: Example 3: proportion of sWASO responders (pooled Examples 1 and 2)
Description: The data collected in studies described in Example 1 and Example 2 were pooled and the response of each subject was analyzed.

[2] = system: Subjects Having Insomnia Disorder; assay: Example 1: subjective total sleep time (sTST), Sleep Diary
Excerpt: As used herein, the term “subjective total sleep time”, abbreviated as “sTST”, means the derived minutes of sleep from sleep onset until the time the subject stopped trying to sleep for the night. In some embodiments, sTST is derived from data entered in a subject's Sleep Diary.
(§1) In some embodiments, sleep diaries were used to assess sleep parameters reported by subjects (i.e., subjective assessments) including subjective sleep onset latency (sSOL), subjective sleep efficiency (sSE), subjective WASO (sWASO), and subjective total sleep time (sTST). Subjects were instructed to complete the Sleep Diary developed based on the consensus Sleep Diary as described in Carney et al., “The consensus sleep diary: standardizing prospective sleep self-monitoring,” Sleep 2012; 35(2):287-302. In some embodiments, the Sleep Diary was used to assess the subject's global perception of quality of sleep on the previous night with the following question: “How would you rate the quality of your sleep last night?” Subjects rated the quality of their sleep on a scale from 1 to 9, with 1 being extremely poor and 9 being extremely good. In some embodiments, the Sleep Diary was used to assess subjective ratings of morning sleepiness with the following question: “How alert/sleepy do you feel this morning?” Subjects rated their sleepiness/alertness level on a Likert scale from 1 to 9, with 1 being extremely sleepy and 9 being extremely alert.
sTST—subjective total sleep time: derived minutes of sleep from sleep onset until the time the subject stopped trying to sleep for the night.
Subjects were randomized in a double-blind manner and received either placebo, 5 mg of lemborexant, or 10 mg of lemborexant (approximately 1:1:1 randomization). All subjects underwent routine safety monitoring through the study, including assessments of treatment-emergent adverse events, 12-lead electrocardiograms, vital signs, weight, and clinical hematology and blood chemistry labs. Suicidality was assessed using the eC-SSRS.
(§2) Treatment period 1 began with the first dose of randomized study medication (placebo, 5 mg of lemborexant, or 10 mg of lemborexant). Subjects completed sleep diaries daily in the morning, within one hour of waketime. The subjects were assessed by a clinician one month, two months, three months, and six months after initiation of Treatment period 1. The following assessments were conducted:
In addition to the aforementioned study endpoints, the study included several additional secondary endpoints: • Mean change from study baseline of subjective sleep onset latency, subjective sleep efficiency, subjective wake after sleep onset, and subjective total sleep time at the beginning of treatment (mean of the 7 nights after the first dose in Period 1), at Month 1 and at Month 3. • Mean change from study baseline of subjective total sleep time at Month 6. • Change from study baseline in daytime functioning, assessed as the total score from the 4 items on daytime functioning, on the Insomnia Severity Index, at Months 1, 3, and 6.

[3] = system: Subjects Having Insomnia Disorder; assay: Example 1: Quality of Sleep rating (scale 1 to 9); details: for Quality of Sleep score, Mean (SD): Baseline; for Quality of Sleep score, Treatment difference (vs placebo): change from baseline at Month 6
Excerpt: as §1
as §2, with “1.” for “1. The following assessments were conducted:”

[4] = Example 1: plasma concentrations of lemborexant and metabolites; details: for concentration at 1 month / concentration at 3 month / concentration at 6 month: human, plasma
Description: Month 1 Assessment: Standard safety assessments were performed on the subject. A blood sample was collected for determination of plasma concentration of lemborexant and its metabolites, and the ISI, FSS, PGI-Insomnia, EQ-5D-3L, and eC-SSR were completed.
Month 3 Assessment: All assessments conducted at the Month 1 Assessment were repeated.
Month 6 Assessment: All assessments conducted at the Month 1 Assessment were repeated, and subjects completed the WPAI-GH.

[5] = First 7 Days, Lemborexant 10 mg

Cc1ncc(OC[C@@]2(c3cccc(F)c3)C[C@H]2C(=O)Nc2ccc(F)cn2)c(C)n1 [Lemborexant, (1R,2S)-2-(((2,4-dimethylpyrimidin-5-yl)oxy)methyl)-2-(3-fluorophenyl)-N-(5-fluoropyridin-2-yl)cyclopropanecarboxamide]
Subjective Wake After Sleep Onset Responder, No, n (%) ([1]; First 7 Days, Lemborexant 5 mg): 420 (81.1) n (%) | Subjective Wake After Sleep Onset Responder, Yes, n (%) ([1]; First 7 Days, Lemborexant 5 mg): 91 (17.6) n (%) | Subjective Wake After Sleep Onset Responders, Difference of proportion vs. Placebo ([1]; First 7 Days, Lemborexant 5 mg): 6.15 | Subjective Wake After Sleep Onset Responder, No, n (%) [1, 5]: 411 (79.5) n (%) | Subjective Wake After Sleep Onset Responder, Yes, n (%) [1, 5]: 100 (19.3) n (%) | Subjective Wake After Sleep Onset Responders, Difference of proportion vs. Placebo [1, 5]: 7.84 | Subjective Wake After Sleep Onset Responder, No, n (%) ([1]; Month 1, Lemborexant 5 mg): 372 (71.8) n (%) | Subjective Wake After Sleep Onset Responder, Yes, n (%) ([1]; Month 1, Lemborexant 5 mg): 121 (23.4) n (%) | Subjective Wake After Sleep Onset Responders, Difference of proportion vs. Placebo ([1]; Month 1, Lemborexant 5 mg): 5.61 | Subjective Wake After Sleep Onset Responder, No, n (%) ([1]; Month 1, Lemborexant 10 mg): 368 (71.2) n (%) | Subjective Wake After Sleep Onset Responder, Yes, n (%) ([1]; Month 1, Lemborexant 10 mg): 122 (23.6) n (%) | Subjective Wake After Sleep Onset Responders, Difference of proportion vs. Placebo ([1]; Month 1, Lemborexant 10 mg): 5.96 | proportion of sWASO responders compared with placebo ([1]; both doses, first 7 days and end of month 1, responder: sWASO of 60 or less minutes and reduction of at least 10 minutes, baseline >60 minutes (Table 31)): statistically significantly superior | subjective total sleep time compared with placebo ([2]; 5 mg and 10 mg, at the equivalent timepoint (Table 5)): greater increase in subjective total sleep time than subjects treated with placebo | sTST, Mean ([2]; 5 mg, First 7 Nights): 350.80 min | sTST, Median ([2]; 5 mg, First 7 Nights): 366.0 min | sTST, Mean ([2]; 5 mg, Month 1): 357.14 min | sTST, Median ([2]; 5 mg, Month 1): 374.64 min | sTST, Mean ([2]; 5 mg, Month 3): 386.42 min | sTST, Median ([2]; 5 mg, Month 3): 397.86 min | sTST, Mean ([2]; 5 mg, Month 6): 392.08 min | sTST, Median ([2]; 5 mg, Month 6): 403.43 min | sTST, Mean ([2]; 5 mg, Study Baseline): 315.52 min | sTST, Median ([2]; 5 mg, Study Baseline): 332.14 min | sTST Change from Study Baseline, Mean ([2]; 5 mg, after 1 Month): 39.32 min | sTST Change from Study Baseline, Median ([2]; 5 mg, after 1 Month): 36.33 min | sTST Change from Study Baseline, Mean ([2]; 5 mg, after 3 Months): 65.82 min | sTST Change from Study Baseline, Median ([2]; 5 mg, after 3 Months): 60.71 min | sTST Change from Study Baseline, Mean ([2]; 5 mg, after 6 Months): 76.21 min | sTST Change from Study Baseline, Median ([2]; 5 mg, after 6 Months): 70.71 min | sTST Change from Study Baseline, Mean ([2]; 5 mg, after 7 Nights): 34.29 min | sTST Change from Study Baseline, Median ([2]; 5 mg, after 7 Nights): 30.71 min | sTST LSM treatment difference: Lemborexant/Placebo ([2]; 5 mg, change from Study Baseline after 1 Month): 11.760 min | sTST LSM treatment difference: Lemborexant/Placebo ([2]; 5 mg, change from Study Baseline after 3 Months): 17.374 min | sTST LSM treatment difference: Lemborexant/Placebo ([2]; 5 mg, change from Study Baseline after 6 Months): 18.555 min | sTST LSM treatment difference: Lemborexant/Placebo ([2]; 5 mg, change from Study Baseline after 7 Nights): 22.034 min | sTST, Mean ([2]; 10 mg, First 7 Nights): 351.43 min | sTST, Median ([2]; 10 mg, First 7 Nights): 365.11 min | sTST, Mean ([2]; 10 mg, Month 1): 355.96 min | sTST, Median ([2]; 10 mg, Month 1): 369.23 min | sTST, Mean ([2]; 10 mg, Month 3): 374.99 min | sTST, Median ([2]; 10 mg, Month 3): 391.43 min | sTST, Mean ([2]; 10 mg, Month 6): 379.25 min | sTST, Median ([2]; 10 mg, Month 6): 398.57 min | sTST, Mean ([2]; 10 mg, Study Baseline): 306.89 min | sTST, Median ([2]; 10 mg, Study Baseline): 315.33 min | sTST Change from Study Baseline, Mean ([2]; 10 mg, after 1 Month): 53.22 min | sTST Change from Study Baseline, Median ([2]; 10 mg, after 1 Month): 47.77 min | sTST Change from Study Baseline, Mean ([2]; 10 mg, after 3 Months): 70.95 min | sTST Change from Study Baseline, Median ([2]; 10 mg, after 3 Months): 64.52 min | sTST Change from Study Baseline, Mean ([2]; 10 mg, after 6 Months): 78.32 min | sTST Change from Study Baseline, Median ([2]; 10 mg, after 6 Months): 72.93 min | sTST Change from Study Baseline, Mean ([2]; 10 mg, after 7 Nights): 46.01 min | sTST Change from Study Baseline, Median ([2]; 10 mg, after 7 Nights): 42.31 min | sTST LSM treatment difference: Lemborexant/Placebo ([2]; 10 mg, change from Study Baseline after 1 Month): 22.131 min | sTST LSM treatment difference: Lemborexant/Placebo ([2]; 10 mg, change from Study Baseline after 3 Months): 21.686 min | sTST LSM treatment difference: Lemborexant/Placebo ([2]; 10 mg, change from Study Baseline after 6 Months): 22.686 min | sTST LSM treatment difference: Lemborexant/Placebo ([2]; 10 mg, change from Study Baseline after 7 Nights): 31.796 min | Quality of Sleep score, Mean (SD) ([3]; 5 mg): 4.0 (1.3) | Quality of Sleep score, Treatment difference (vs placebo) ([3]; 5 mg): 0.28 | Quality of Sleep score, Mean (SD) ([3]; 10 mg): 4.0 (1.4) | Quality of Sleep score, Treatment difference (vs placebo) ([3]; 10 mg): 0.32 | quality of sleep compared with placebo ([3]; at 6 months (Table 8)): significantly improved | concentration at 1 month ([4]; 10 mg, lemborexant 10 mg dose, Month 1, read-out: Plasma concentration, Mean (SD)): 16.3 ng/mL | concentration at 1 month ([4]; 10 mg, lemborexant 10 mg dose, Month 1, read-out: Plasma concentration, Median): 15.1 ng/mL | concentration at 3 month ([4]; 10 mg, lemborexant 10 mg dose, Month 3, read-out: Plasma concentration, Mean (SD)): 15.6 ng/mL | concentration at 3 month ([4]; 10 mg, lemborexant 10 mg dose, Month 3, read-out: Plasma concentration, Median): 15.1 ng/mL | concentration at 6 month ([4]; 10 mg, lemborexant 10 mg dose, Month 6, read-out: Plasma concentration, Mean (SD)): 15.2 ng/mL | concentration at 6 month ([4]; 10 mg, lemborexant 10 mg dose, Month 6, read-out: Plasma concentration, Median): 14.5 ng/mL | concentration at 1 month ([4]; oral, 5 mg, lemborexant 5 mg dose, Month 1, read-out: Plasma concentration, Mean (SD)): 9 ng/mL | concentration at 1 month ([4]; oral, 5 mg, lemborexant 5 mg dose, Month 1, read-out: Plasma concentration, Median): 7.6 ng/mL | concentration at 3 month ([4]; oral, 5 mg, lemborexant 5 mg dose, Month 3, read-out: Plasma concentration, Mean (SD)): 8.4 ng/mL | concentration at 3 month ([4]; oral, 5 mg, lemborexant 5 mg dose, Month 3, read-out: Plasma concentration, Median): 7.7 ng/mL | concentration at 6 month ([4]; oral, 5 mg, lemborexant 5 mg dose, Month 6, read-out: Plasma concentration, Mean (SD)): 7.9 ng/mL | concentration at 6 month ([4]; oral, 5 mg, lemborexant 5 mg dose, Month 6, read-out: Plasma concentration, Median): 6.9 ng/mL | Plasma concentration BLQ (<0.0500 ng/mL) ([4]; lemborexant 5 mg dose, Month 1): 31 (10.5) n (%) | Plasma concentration BLQ (<0.0500 ng/mL) ([4]; lemborexant 5 mg dose, Month 3): 34 (12.6) n (%) | Plasma concentration BLQ (<0.0500 ng/mL) ([4]; lemborexant 5 mg dose, Month 6): 45 (18.2) n (%) | Plasma concentration BLQ (<0.0500 ng/mL) ([4]; lemborexant 10 mg dose, Month 1): 21 (7.4) n (%) | Plasma concentration BLQ (<0.0500 ng/mL) ([4]; lemborexant 10 mg dose, Month 3): 29 (11.2) n (%) | Plasma concentration BLQ (<0.0500 ng/mL) ([4]; lemborexant 10 mg dose, Month 6): 33 (14.6) n (%)

Reference: patent US20220305012A1, “L[…] TREATING SLEEP ISSUES” (EISAI R&D MANAGEMENT CO., LTD., priority 2019, published 2022)
